The values below are quoted from earlier work in US6461591B1, “Medical aerosol formulations” (Jago Research AG, priority 1997, dated 2002).

For the series the following is noted: at 20° C.

For `FCC(F)(F)F` [HFA 134a, 1,1,1,2-tetrafluoroethane], the vapour pressure result is on record as “about 6 bar”.
As to `FC(C(F)(F)F)C(F)(F)F` [HFA 227, 1,1,1,2,3,3,3-heptafluoropropane], the density entry is given as “about 1.4 mg/ml” and the vapour pressure result is reported as “about 4.2 bar”.
